How the values were obtained:
[1] = test system: viruses isolated from quantitative viral outgrowth assay (QVOA) supernatants; experiment: Infected-cell binding with viruses isolated from QVOA supernatants; design: species or system HIV
Excerpt: (§1) We developed a method to perform paired testing of neutralization and infected-cell binding (predictive of ADCC^6) and applied this to 36 viruses that we isolated from quantitative viral outgrowth assay (QVOA) supernatants, using a panel of 14 clinically relevant bnAbs.

pseudovirus = experiment: Standard pseudovirus neutralization assay; format: cell-based, HIV
Method: Virus neutralization by secreted 10-1074. We also tested whether the supernatants secreted from TbnAb are capable of neutralizing HIV by using a standard pseudovirus assay. Briefly, supernatants obtained from TbnAbs were diluted five fold and incubated with pseudovirus. Target cells were then added, and a single-round of infection was allowed to proceed for 48 h^1. In certain lines, we observed 20-30% neutralization of virus at this single concentration (data not shown). […] (data not shown). […] Thus, the data support that the 10-1074 in these supernatants is functionally equivalent to purified 10-1074 on a per concentration basis.

[2] = test system: viruses isolated from quantitative viral outgrowth assay (QVOA) supernatants; experiment: Neutralization of viruses isolated from QVOA supernatants; format: cell-based, HIV
Excerpt: as §1

[3] = test system: HIV-infected CD4+ T-cells; experiment: Binding of secreted 10-1074 bnAb to HIV-infected CD4+ T-cells (flow cytometry); conditions: virus from latent reservoir of participant OM5334, high MOI (~70% Gag+)
Excerpt: Binding of secreted 10-1074 bnAb to HIV-Infected CD4^+ T-cells. […] These cells were then stained with a fluorochrome-conjugated anti-human-IgG1 antibody, and analyzed by flow cytometry. […] We therefore performed an additional experiment using a lower multiplicity of infection (MOI) of the HIV molecular clone SF162. […] However, it has been well-established that Ab-binding to infected cells is predictive of ADCC^6.

HIV = conditions: in a subset of the population; cited from earlier work
HIV SF162 = experiment: Viral inhibition assay (p24); format: cell-based; conditions: antibody alone, absence of NK cells, n=2 replicates
[4] = test system: HIV envelope expressing HeLa cells; experiment: HIV binding: HIV envelope expressing HeLa cells (flow cytometry); conditions: supernatant of transduced cells
Method: HIV envelope expressing HeLa cells were obtained from NIH AIDS Reagent Program (69T1 RevEnv Cells, #3336). HeLa Envelope cells were fixed with 4.2% paraformaldehyde (BD, #554655) for 20 minutes at 4° C. Cells were washed in chilled Facs Buffer (PBS+2% FBS) and incubated in supernatant containing secreted antibody from transduced Jurkat T cells or non-specific antibodies from nontransduced Jurkat T cells for 1 hour at room temperature. Cells were washed an additional two times in Facs Buffer and incubated with goat anti-human IgG (H+L) FITC (Life Technologies, #H10301) for 30 minutes at room temperature.
To test whether the T cell secreted antibodies maintain their ability to recognize HIV envelope, we used HeLa cells expressing Env obtained from the AIDS reagent program.

non-expressing cells = experiment: HIV binding: non-expressing cells (flow cytometry); conditions: supernatant of transduced cells
[5] = biological target: HIV envelope (Env) expressed on HeLa cells (69T1 RevEnv Cells) (HIV); experiment: cell-based or functional assay
[6] = biological target: 36 viruses isolated from quantitative viral outgrowth assay (QVOA) supernatants; experiment: cell-based or functional assay

For “10-1074: Monoclonal antibody 10-1074 targets the V3 glycan supersite on the HIV-1 envelope (Env) protein; broadly neutralizing”, the “binding characteristics (breadth and potency)” value ([1]; 36 viruses, panel of 14 bnAbs) was “superior binding characteristics”, the infected cell binding ([1]; OM5162 virus isolate #3) was “lack of 10-1074 binding” and the infected cell binding ([1]; patient OM5162 virus isolate #1) was “binding”. For the same molecule, the “concentration giving 20-30% neutralization” value (pseudovirus; purified antibody curves) was 0.01 to 0.1 µg/mL, the viruses potently neutralized ([2]; 36 viruses isolated from QVOA supernatants) was 24/36 and the “median IC50 against reservoir viruses” value ([2]; reservoir viruses) was 0.3 µg/mL. For the same molecule, the “binding to HIV-infected CD4+ T cells” value [3] was “efficient binding”, the “HIV RNA levels” value (HIV) was “transiently decrease HIV RNA levels” and the “HIV p24 (viral inhibition)” value (HIV SF162; FIG. 10A) was 6892.442±168.555. The “HIV p24 (viral inhibition)” value (HIV SF162; FIG. 10B) was 757.911±163.351 and the “HIV p24 (viral inhibition)” value (HIV SF162; FIG. 10C) was 22914.671±2305.507.

For “TbnAb secreted 10-1074: 10-1074 antibody secreted into supernatants by transduced T cells”, the neutralization of virus (pseudovirus; supernatants diluted five fold (0.03 ug/ml of 10-1074), single-round infection 48 h, certain lines) was 20-30%, the “binding to HIV-infected CD4+ T cells” value [3] was “specific binding” and the “binding to HIV-infected CD4+ T cells” value ([3]; listed as antibody secreted by HIV specific TbnAb cell lines) was “specifically binds”. The “binding to envelope-expressing cells” value [4] was “bind” and the “binding to non-expressing cells” value (non-expressing cells) was “not”.

B1: T cell-secreted 10-1074 antibody from the 10-1074 Ab construct (IgG3 constant region) (antibody, V domains shown)
VH: QVQLQESGPGLVKPSETLSVTCSVSGDSMNNYYWTWIRQSPGKGLEWIGYISDRESATYNPSLNSRVVISRDTSKNQLSLKLNSVTPADTAVYYCATARRGQRIYGVVSFGEFFYYYSMDVWGKGTTVTVSS
VL: SYVRPLSVALGETARISCGRQALGSRAVQWYQHRPGQAPILLIYNNQDRPSGIPERFSGTPDINFGTRATLTISGVEAGDEADYYCHMWDSRSGFSWSFGGATRLTVLV
For B1, the NK cell killing (ADCC; europium cytotoxicity assay, primary NK cells) [5] was 34.5 and the increase in killing from ADCC [5] was 10.5%.

B2: 10-1074 antibody (purified) (antibody, V domains shown)
VH: B1 VH
VL: SYVRPLSVALGETARISCGRQALGSRAVQWYQHRPGQAPILLIYNNQDRPSGIPERFSGTPDINFGTRATLTISGVEAGDEADYYCHMWDSRSGFSWSFGGATRLTVL
For B2, the median IC50 (neutralization) [6] was 0.3 µg/mL.

— US20220048988A1, “CELLS EXPRESSING ANTIBODIES TARGETING HUMAN IMMUNODEFICIENCY VIRUS AND METHODS OF USING THE SAME” (priority 2018, published 2022)
